From patent US20230339981A1, “KRAS G12D MODULATING COMPOUNDS” (priority 2022, published 2023) come the findings set out here.

The target of one experiment is GDP-loaded KRAS G12D (Homo sapiens (Human), UniProt P01116, G12D). Nature of the experiment: KRAS G12D (GDP) biochemical assay (TR-FRET probe displacement). The conditions noted are these: 2 hours. It counts as binding. In outline:
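Compound pre-incubated 30 min with GDP-loaded KRAS G12D in 50 mM Hepes pH 7.4, 150 mM NaCl, 5 mM MgCl2, 0.005% Tween-20, then Eu-streptavidin and TR-FRET probe added. After 2 h at room temperature, TR-FRET ratio read; IC50 is 50% ratio decrease, sigmoidal fit.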

A further experiment concerns GP2D (KRAS G12D) cells. In words: 2D cell viability assay (CellTiter-Glo). The format is cell-based. The conditions noted are these: GP2d, 96 h, 4 days. An outline of the steps: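 GP2D (KRAS G12D) cells, 1000/well in RPMI + 10% FBS, were plated onto compound (1:3 DMSO series) and grown 4 days at 37 °C, 5% CO2 in 2D. CellTiter-Glo luminescence was read; EC50 is the concentration giving 50% signal decrease, from sigmoidal fit.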

Molecules are shown by their SMILES.

GDP-loaded KRAS G12D, sequence (P01116-2 other isoform, or with tags, fused parts or gaps G12D): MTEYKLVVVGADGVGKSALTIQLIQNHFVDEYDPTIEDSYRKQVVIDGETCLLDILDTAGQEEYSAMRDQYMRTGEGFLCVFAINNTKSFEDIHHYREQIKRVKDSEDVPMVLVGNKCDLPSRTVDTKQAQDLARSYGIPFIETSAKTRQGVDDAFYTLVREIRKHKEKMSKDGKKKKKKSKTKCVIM

As for `C#Cc1c(F)ccc2cc(O)cc(-c3nc4c5c(nc(OCC6(CN7CCC(C(F)(F)F)CC7)CC6)nc5c3F)N3C[C@H]5CC[C@H](N5)[C@H]3CC4)c12` [Example 69, 5-ethynyl-6-fluoro-4-((5aR,6S,9R)-1-fluoro-12-((1-((4-(trifluoromethyl)piperidin-1-yl)methyl)cyclopropyl)methoxy)-4,5,5a,6,7,8,9,10-octahydro-3,10a,11,13,14-pentaaza-6,9-methanonaphtho[1,8-ab]heptalen-2-yl)naphthalen-2-ol], the IC50 at GDP-loaded KRAS G12D stood at 0.1 nM. In the experiment with GP2D (KRAS G12D) cells, this compound registered an EC50 of 0.6 nM.
The matching figures for `C#Cc1c(F)ccc2cc(O)cc(-c3nc4c5c(nc(OCC6(CN7CC[C@@H](C(F)(F)F)C7)CC6)nc5c3F)N3C[C@H]5CC[C@H](N5)[C@H]3CC4)c12` [Example 70, 5-ethynyl-6-fluoro-4-((5aR,6S,9R)-1-fluoro-12-((1-(((R)-3-(trifluoromethyl)pyrrolidin-1-yl)methyl)cyclopropyl)methoxy)-4,5,5a,6,7,8,9,10-octahydro-3,10a,11,13,14-pentaaza-6,9-methanonaphtho[1,8-ab]heptalen-2-yl)naphthalen-2-ol]: 0.1 nM and 1 nM.
The matching figures for `C#Cc1c(F)ccc2cc(O)cc(-c3nc4c5c(nc(OC[C@@]67CCCN6C[C@H](F)C7)nc5c3F)N3C[C@H]5CC[C@H](N5)[C@H]3[C@H](C3CC3)O4)c12` [Example 71, 4-((5S,5aS,6S,9R)-5-cyclopropyl-1-fluoro-12-(((2R,7aS)-2-fluorotetrahydro-1H-pyrrolizin-7a(5H)-yl)methoxy)-5a,6,7,8,9,10-hexahydro-5H-4-oxa-3,10a,11,13,14-pentaaza-6,9-methanonaphtho[1,8-ab]heptalen-2-yl)-5-ethynyl-6-fluoronaphthalen-2-ol]: 4 nM and 81 nM.
On GDP-loaded KRAS G12D, `Fc1ccc(-c2nc3c4c(nc(OC[C@@]56CCCN5C[C@H](F)C6)nc4c2F)N2C[C@H]4CC[C@H](N4)[C@H]2CO3)c2ccccc12` [Example 72, (5aS,6S,9R)-1-fluoro-2-(4-fluoronaphthalen-1-yl)-12-(((2R,7aS)-2-fluorotetrahydro-1H-pyrrolizin-7a(5H)-yl)methoxy)-5a,6,7,8,9,10-hexahydro-5H-4-oxa-3,10a,11,13,14-pentaaza-6,9-methanonaphtho[1,8-ab]heptalene] registered an IC50 of 510 nM. Besides, in the experiment with GP2D (KRAS G12D) cells, the EC50 was > 1000 nM.
In the same order, the values of `C#Cc1c(F)ccc2cc(O)cc(-c3nc4c5c(nc(OC[C@@]67CCCN6C[C@H](F)C7)nc5c3F)N3C[C@H]5CC[C@H](N5)[C@@H]3CCO4)c12` [Example 77, 5-ethynyl-6-fluoro-4-((6aS,7S,10R)-1-fluoro-13-(((2R,7aS)-2-fluorotetrahydro-1H-pyrrolizin-7a(5H)-yl)methoxy)-5,6,6a,7,8,9,10,11-octahydro-4-oxa-3,11a,12,14,15-pentaaza-7,10-methanocyclohepta[4,5]cycloocta[1,2,3-de]naphthalen-2-yl)naphthalen-2-ol] are 6 nM and 83 nM.
`C#Cc1c(F)ccc2cc(O)cc(-c3nc4c5c(nc(OC[C@@]67CCCN6C[C@H](F)C7)nc5c3F)N3C[C@H]5CC[C@H](N5)[C@@H]3[C@H](C)C4)c12` [Example 79, 5-ethynyl-6-fluoro-4-((5R,5aS,6S,9R)-1-fluoro-12-(((2R,7aS)-2-fluorotetrahydro-1H-pyrrolizin-7a(5H)-yl)methoxy)-5-methyl-4,5,5a,6,7,8,9,10-octahydro-3,10a,11,13,14-pentaaza-6,9-methanonaphtho[1,8-ab]heptalen-2-yl)naphthalen-2-ol] displayed an IC50 at GDP-loaded KRAS G12D of 7 nM. Besides, the EC50 in the experiment with GP2D (KRAS G12D) cells came out at 15.3 nM.
The matching figures for `C#Cc1c(F)ccc2cc(O)cc(-c3nc4c5c(nc(OC[C@@]67CCCN6C[C@H](F)C7)nc5c3F)N3C[C@H]5CC[C@H](N5)[C@H]3[C@@H](C(F)F)O4)c12` [Example 82, 4-((5S,5aS,6S,9R)-5-(difluoromethyl)-1-fluoro-12-(((2R,7aS)-2-fluorotetrahydro-1H-pyrrolizin-7a(5H)-yl)methoxy)-5a,6,7,8,9,10-hexahydro-5H-4-oxa-3,10a,11,13,14-pentaaza-6,9-methanonaphtho[1,8-ab]heptalen-2-yl)-5-ethynyl-6-fluoronaphthalen-2-ol]: 11.4 nM and 104 nM.
In the same order, the values of `C#Cc1c(F)ccc2cccc(-c3nc4c5c(nc(OC[C@@]67CCCN6[C@H](COC(C(F)(F)F)(C(F)(F)F)C(F)(F)F)CC7)nc5c3F)N3C[C@H]5CC[C@H](N5)[C@@H]3[C@@H](C)C4)c12` [Example 83, (5S,5aS,6S,9R)-2-(8-ethynyl-7-fluoronaphthalen-1-yl)-1-fluoro-12-(((3S,7aS)-3-(((1,1,1,3,3,3-hexafluoro-2-(trifluoromethyl)propan-2-yl)oxy)methyl)tetrahydro-1H-pyrrolizin-7a(5H)-yl)methoxy)-5-methyl-4,5,5a,6,7,8,9,10-octahydro-3,10a,11,13,14-pentaaza-6,9-methanonaphtho[1,8-ab]heptalene] are 3.2 nM and 67.4 nM.
For the compound `C#Cc1c(F)ccc2cccc(-c3nc4c5c(nc(OC[C@@]67CCCN6C[C@H](F)C7)nc5c3F)N3C[C@H]5CC[C@H](N5)[C@@H]3[C@@H](C)C4)c12` [Example 84, (5S,5aS,6S,9R)-2-(8-ethynyl-7-fluoronaphthalen-1-yl)-1-fluoro-12-(((2R,7aS)-2-fluorotetrahydro-1H-pyrrolizin-7a(5H)-yl)methoxy)-5-methyl-4,5,5a,6,7,8,9,10-octahydro-3,10a,11,13,14-pentaaza-6,9-methanonaphtho[1,8-ab]heptalene], on GDP-loaded KRAS G12D, the IC50 is 3.9 nM. A half-maximal effect with GP2D (KRAS G12D) cells (EC50) was put at 27.7 nM.
In the case of `C#Cc1c(F)ccc2cccc(-c3nc4c5c(nc(OC[C@@]67CCCN6C[C@@]6(CC6(F)F)C7)nc5c3F)N3C[C@H]5CC[C@H](N5)[C@@H]3[C@@H](C)C4)c12` [Example 85, (5S,5aS,6S,9R)-12-(((1S,7a'S)-2,2-difluorodihydro-1′H,3′H-spiro[cyclopropane-1,2′-pyrrolizin]-7a′(5′H)-yl)methoxy)-2-(8-ethynyl-7-fluoronaphthalen-1-yl)-1-fluoro-5-methyl-4,5,5a,6,7,8,9,10-octahydro-3,10a,11,13,14-pentaaza-6,9-methanonaphtho[1,8-ab]heptalene], on GDP-loaded KRAS G12D, the IC50 is 6.8 nM. In addition, it took 58 nM to reach a half-maximal effect in the experiment with GP2D (KRAS G12D) cells (EC50).
`C#Cc1c(F)ccc2cccc(-c3nc4c5c(nc(OCC6(CN7CCC(OC(F)(F)F)CC7)CC6)nc5c3F)N3C[C@H]5CC[C@H](N5)[C@@H]3[C@@H](C)C4)c12` [Example 88, (5S,5aS,6S,9R)-2-(8-ethynyl-7-fluoronaphthalen-1-yl)-1-fluoro-5-methyl-12-((1-((4-(trifluoromethoxy)piperidin-1-yl)methyl)cyclopropyl)methoxy)-4,5,5a,6,7,8,9,10-octahydro-3,10a,11,13,14-pentaaza-6,9-methanonaphtho[1,8-ab]heptalene] gave an IC50 at GDP-loaded KRAS G12D of 36.5 nM. Moreover, the EC50 with GP2D (KRAS G12D) cells turned out to be 255 nM.
In the same order, the values of `C#Cc1c(F)ccc2cccc(-c3nc4c5c(nc(OCC6(CN7CC[C@H](OC(F)(F)F)C7)CC6)nc5c3F)N3C[C@H]5CC[C@H](N5)[C@@H]3[C@@H](C)C4)c12` [Example 89, (5S,5aS,6S,9R)-2-(8-ethynyl-7-fluoronaphthalen-1-yl)-1-fluoro-5-methyl-12-((1-(((S)-3-(trifluoromethoxy)pyrrolidin-1-yl)methyl)cyclopropyl)methoxy)-4,5,5a,6,7,8,9,10-octahydro-3,10a,11,13,14-pentaaza-6,9-methanonaphtho[1,8-ab]heptalene] are 50.9 nM and 379 nM.
In the same order, the values of `C#Cc1c(F)ccc2cc(O)cc(-c3nc4c5c(nc(OC[C@@]67CCCN6C[C@H](F)C7)nc5c3F)N3C[C@H]5CC[C@H](N5)[C@@H]3[C@H](CC)C4)c12` [Example 90, 4-((5R,5aS,6S,9R)-5-ethyl-1-fluoro-12-(((2R,7aS)-2-fluorotetrahydro-1H-pyrrolizin-7a(5H)-yl)methoxy)-4,5,5a,6,7,8,9,10-octahydro-3,10a,11,13,14-pentaaza-6,9-methanonaphtho[1,8-ab]heptalen-2-yl)-5-ethynyl-6-fluoronaphthalen-2-ol] are 100 nM and 1000 nM.
The matching figures for `C#Cc1c(F)ccc2cccc(-c3nc4c5c(nc(OC[C@@]67CCCN6C[C@H](F)C7)nc5c3F)N3C[C@H]5CC[C@H](N5)[C@@H]3[C@@H](CC)C4)c12` [Example 91, (5S,5aS,6S,9R)-5-ethyl-2-(8-ethynyl-7-fluoronaphthalen-1-yl)-1-fluoro-12-(((2R,7aS)-2-fluorotetrahydro-1H-pyrrolizin-7a(5H)-yl)methoxy)-4,5,5a,6,7,8,9,10-octahydro-3,10a,11,13,14-pentaaza-6,9-methanonaphtho[1,8-ab]heptalene]: 100 nM and 1000 nM.
`C#Cc1c(F)ccc2cccc(-c3nc4c5c(nc(OC[C@@]67CCCN6C[C@H](F)C7)nc5c3F)N3C[C@H]5CC[C@H](N5)[C@H]3CC4(F)F)c12` [Example 98, (5aR,6S,9R)-2-(8-ethynyl-7-fluoronaphthalen-1-yl)-1,4,4-trifluoro-12-(((2R,7aS)-2-fluorotetrahydro-1H-pyrrolizin-7a(5H)-yl)methoxy)-4,5,5a,6,7,8,9,10-octahydro-3,10a,11,13,14-pentaaza-6,9-methanonaphtho[1,8-ab]heptalene] came in with an IC50 on GDP-loaded KRAS G12D of 12.6 nM. Besides, in the experiment with GP2D (KRAS G12D) cells, the midpoint of the response, the EC50, lay at 124 nM.
